This note sets out measurements from paper PMC12040169 (PLOS Biology, 2025).

The series can be described thus: in vitro. Particulars: human, hela cells, % viability.

Regarding `Cn1ncc(N)c1C(=O)Nc1cccc(Cl)c1` [CBK270107], the viability at 28.5 h, 10 µM is 87.6%.
As to `O=S(=O)(Nc1nnn[nH]1)c1ccc(F)cc1` [CBK050473], the viability at 28.5 h, 10 µM was 104%.
Next, `CCOC(=O)N1CCC(NS(=O)(=O)c2ccc(OC)c(OC)c2)CC1` [CBK045464]: 104%.
Next, `COc1ccccc1-c1cnc(N)c(N[C@@H](CO)C(C)C)n1` [CBK063749]: 101%; `Cc1noc(C)c1C(=O)N[C@H]1CO[C@H]2[C@@H]1OC[C@H]2OCc1ccccc1` [CBK289458]: 96.7%.
With `COc1ccccc1OCCCN1C(=O)C2(CC(=O)N(C)C2=O)c2cc(F)ccc21` (centres unmarked) [CBK075430] the figure was 88.2%; with `CS(=O)(=O)Nc1cc2ccccc2c(-c2ccc(OC(F)(F)F)cc2)n1` [CBK085757], 121%.
Regarding `Clc1ccc(Nc2cncc(-c3cccs3)n2)cc1` [CBK065805], the viability at 28.5 h, 10 µM came out at 107%.
With `COc1ccc2c(c1)c(C(=O)NCCn1nc(C)cc1C)c(C)n2C` [CBK304615] the figure was 78%.
For `COc1ccc(C2=C3NN=C(N)N3NN2)cc1` [CBK093662], the viability at 28.5 h, 10 µM was 84.8%.
On to `COCc1nnc(SCC(=O)N2CCc3ccccc32)n1-c1ccccc1` [CBK269739], for which the viability at 28.5 h, 10 µM turned out to be 83.1%.
Next, `COc1ccc(S(=O)(=O)NC[C@H]2C[C@@H]3CC[N@]2C[C@@H]3CN2CCSCC2)cc1` [CBK288769]: 86.6%; `C[C@@H]1CN(c2ccc(C(F)(F)F)c(OCc3ccccc3)n2)CCN1` [CBK003987A]: 94%.
With `N#Cc1c(O)nsc1Nc1ccc(Cl)cc1` [CBK009446] the figure was 94.9%.
With `O=C(NC(c1ccccc1)c1ccccc1)c1ccc(Cl)cc1[N+](=O)[O-]` [CBK262452] the figure was 84.1%.
In the case of `COc1cccc(-c2nc(CC(=O)N3CCC(C(=O)O)CC3)cs2)c1` [CBK286797], the viability at 28.5 h, 10 µM turned out to be 92.3%.
As to `CCOc1ccc(Cc2nnnn2CC(=O)O)cc1` [CBK286677], the viability at 28.5 h, 10 µM was 91.2%.
Next, `COC(=O)c1ccccc1NC(=O)Nc1ccc(N2CCOCC2)c2nonc12` [CBK266830]: 90.6%; `COc1cccc([C@H]2CN(C(=O)c3ccccc3)[C@@H]3CCN(Cc4ccccc4C)C[C@H]23)c1` [CBK285610]: 98.6%; `CNC(=O)c1cccc(NC(=O)c2cc(-c3ccc(O)cc3)cnc2N(C)C)c1` [CBK106397]: 89.6%.
With `Cn1nc(CO)c2c1CCN(CC(=O)Nc1nc(C(C)(C)C)cs1)C2` [CBK307161] the figure was 85.7%; with `CN1CCN(c2cc(NCC(c3cccnc3)N(C)C)nc3ccnn23)CC1` (centres unmarked) [CBK037157], 106%; with `O=C(NC1CCCCC1)C1CCC1` [CBK011511], 96.5%.
Regarding `CN1CCC(N(C)S(=O)(=O)c2ccc(C(C)(C)C)cc2)C1` (centres unmarked) [CBK059036T], the viability at 28.5 h, 10 µM is 98.5%.
Regarding `CN(C)CCN(Cc1cccnc1)C(=O)C1(c2ccccc2F)CC1` [CBK282771], the viability at 28.5 h, 10 µM came out at 97%.
Next, `CCCC/C=C/c1cn2ccnc2c(Nc2ccc(OC)nc2)n1` [CBK038089]: 100%.
With `CC[C@H](Cn1c(=O)oc2ccccc21)NC(=O)c1ccco1` [CBK284541] the figure was 86.7%; with `O=S(=O)(Nc1nnn[nH]1)c1cccc2nsnc12` [CBK062379], 99%.
Next, `COc1cccc(-c2nccnc2C2CCCN(S(=O)(=O)c3ccc(F)cc3)C2)c1` (centres unmarked) [CBK286138]: 108%; `O=C(CSc1nnc(-c2ccco2)c(-c2ccco2)n1)Nc1ccccc1[N+](=O)[O-]` [CBK265762]: 107%; `C=CCn1c(NCc2ccco2)nc2ccccc21` [CBK269751]: 87.9%.
Consider `CCCN1CCCN(c2ccc(-n3ccc(C)n3)nn2)CC1` [CBK306304], for which the viability at 28.5 h, 10 µM came out at 107%.
With `COc1cc(CNc2nccnc2-c2cccc(CO)c2)cc(OC)c1` [CBK037403] the figure was 90.6%; with `CCN1CCCC1CNS(=O)(=O)c1cc(C(N)=O)ccc1OC` (centres unmarked) [CBK267815], 115%; with `O=S(=O)(c1cccs1)N1CCCN(Cc2nccs2)CC1` [CBK045172], 119%.
For `Cc1noc(C)c1NC(=O)N(Cc1ccccc1C(F)(F)F)C1CCC(N)CC1` (centres unmarked) [CBK045963C], the viability at 28.5 h, 10 µM came to 103%.
With `OC1(Cn2cnc3ccccc32)CCN(Cc2cccc(F)c2)CC1` [CBK284663] the figure was 94.9%; with `O=C(O)CNC(=O)CNC(=O)C12CC3CC(CC(C3)C1)C2` [CBK287083], 81.4%.
Next, `CC(C)c1ccc(-c2cncc(NCCCO)n2)cc1` [CBK037937]: 106%.
For the molecule `COc1cc(/C=N/NC(=O)CSc2n[nH]c(=O)[nH]c2=O)cc(OC)c1O` [CBK263527], the viability at 28.5 h, 10 µM is 92.9%.
With `c1ccc2c(c1)CSCC2Oc1cncc(N2CCNCC2)n1` (centres unmarked) [CBK172356T] the figure was 94.9%; with `NNC(=O)c1ccc(Oc2ccc(C(=O)NN)cc2)cc1` [CBK260995], 85.7%.
With `COC(=O)Cn1c(CN2CCN(c3cccc(Cl)c3)CC2)nc2c1c(=O)n(C)c(=O)n2C` [CBK269598] the figure was 86.7%; with `Cc1cccc(CN(CC(=O)Nc2ccc3c(c2)OCCO3)S(=O)(=O)c2ccc(Cl)cc2)c1` [CBK264910], 91.9%; with `C[C@H]1[C@@H]2[C@H]3OC(=O)[C@@H](C)[C@@H]3CC[C@@]2(C)CC[C@@H]1NC(=O)c1ccccn1` [CBK289452], 107%.
With `COc1cc(C)c(Nc2cc(-c3cccnc3)ncn2)cc1OC` [CBK037754] the figure was 102%; with `COc1cccc(NC(=O)C(=O)NCCCO)c1` [CBK262095], 89.6%; with `CN1CCC(N2CCN(C(=O)c3cnc(-c4ccccn4)nc3C(F)(F)F)CC2)CC1` [CBK149089], 107%.
Regarding `Cc1c(C(=O)O)sc2nc3c(Cl)cc(C(=O)c4ccccc4O)cn3c(=O)c12` [CBK295619], the viability at 28.5 h, 10 µM is 98.5%.
Next, `CC(=O)Nc1ccc(S(=O)(=O)N2CCN(c3ccc([N+](=O)[O-])c(NC4CC4)c3)CC2)cc1` [CBK264439]: 97.3%.
Next, `Cc1ccc(C(=O)NNC(=S)Nc2ccc(S(N)(=O)=O)cc2)cc1[N+](=O)[O-]` [CBK266866]: 95.6%; `O=C(CC(CN1CCN(c2ccccn2)CC1)C(=O)O)NCc1ccccc1` (centres unmarked) [CBK286649]: 89%.
On to `O=S(=O)(Nc1cccc2cc[nH]c12)c1cc(Cl)ccc1Cl` [CBK153581], for which the viability at 28.5 h, 10 µM was found to be 84.6%.
With `CCN(CC)S(=O)(=O)c1csc(C(=O)Nc2cccc([N+](=O)[O-])c2)c1` [CBK264505] the figure was 91.3%; with `O=C(c1ccc(-c2nccnc2NCc2ccco2)cc1)N1CCOCC1` [CBK036920], 98.6%; with `Cc1ccc(C2CC(=O)Nc3nc(-c4ccccc4)[nH]c(=O)c32)c(C)c1` (centres unmarked) [CBK287998], 108%.
For `O=C(/C=C/c1ccsc1)Nc1ccc(F)cc1` [CBK057139], the viability at 28.5 h, 10 µM was 93.9%.
As to `CCOC(=O)COc1cccc(/C=C2/SC(=S)N(c3cccc(C(=O)O)c3)C2=O)c1` [CBK265589], the viability at 28.5 h, 10 µM turned out to be 98.3%.
Next, `COc1ccc(-c2nn(CCC#N)cc2C(=O)N2CCCCC2)cc1` [CBK305834]: 92.4%; `Cc1cc(C)nc(Nc2n[nH]c(-c3cccnc3)n2)n1` [CBK267120]: 98%; `CCn1c(SCC(=O)N/N=C/C(C)=C/c2ccccc2)nc2ccccc21` [CBK263178]: 107%.
For the molecule `CC(C)c1nccn1CC(=O)NCCOc1ccc(F)cc1` [CBK281597], the viability at 28.5 h, 10 µM is 89.6%.
Consider `Cn1c(=O)[nH]c(=O)c2c1nc(N1CCOCC1)n2CC(O)COc1ccc(I)cc1` (centres unmarked) [CBK262438], for which the viability at 28.5 h, 10 µM came to 111%.
Consider `O=C(CSc1nc2ccccc2c2nc3ccccc3n12)Nc1cccc(Cl)c1` [CBK267872], for which the viability at 28.5 h, 10 µM stood at 94.2%.
With `N#Cc1cccnc1N1CCC(NC(=O)Cn2cccnc2=O)CC1` [CBK307275] the figure was 95.7%; with `c1ccc2sc(-n3cncn3)nc2c1` [CBK027022], 92.2%; with `Cc1csc2c(C3CCCN(C(=O)c4cccnc4)C3)nc(C)n12` (centres unmarked) [CBK283329], 93.4%.
On to `CC(C)NC(=O)CN1CCN(c2ccc(C#N)cc2Cl)CC1` [CBK305470], for which the viability at 28.5 h, 10 µM was found to be 88.3%.
For the molecule `Cc1cnc2[nH]c(C(C)C)c(CN(C)C)c2c1` [CBK284758], the viability at 28.5 h, 10 µM is 100%.
With `Cc1nc2cccnc2n1C1CCN(C(=O)NC2CCCCC2)CC1` [CBK283637] the figure was 88.5%; with `CC(=O)N1CCC(C(=O)NCCc2cccc(C)c2)C1` (centres unmarked) [CBK281952], 110%; with `CN1CCC(N(C)C2CCN(Cc3ccccc3)CC2)CC1` [CBK261925], 85.8%.
With `CCOc1ccccc1C1C=C(C(=O)O)Nc2c(C(=O)Nc3ccccc3)cnn21` (centres unmarked) [CBK287253] the figure was 93.7%; with `CCCCNc1nnc(-c2nn(C)cc2Cl)s1` [CBK288021], 79.4%.
In the case of `Cc1cc(NC(=O)C(C)(C)C)nc2c1c(=O)oc1ccccc12` [CBK287443], the viability at 28.5 h, 10 µM was 78.7%.
With `O=C(C1=C(O)C(=O)N(CCCn2ccnc2)C1c1cccc([N+](=O)[O-])c1)c1cccs1` (centres unmarked) [CBK264591] the figure was 95.9%.
Next, `CCOc1ccc(S(=O)(=O)N2CCCN(Cc3c[nH]c(C)n3)CC2)c2cccnc12` [CBK063031]: 101%.
With `Nc1ncc(-c2ccc(N3CCOCC3)cc2)nc1N1CCN(CCO)CC1` [CBK063394] the figure was 95.8%; with `Oc1cccc(-c2nccnc2N2CCN(c3ccncc3)CC2)c1` [CBK037079], 113%.
For the molecule `COCC(=O)N1CCN2C(=O)c3ccccc3NC(=O)[C@@H]2C1` [CBK289582], the viability at 28.5 h, 10 µM came out at 90.6%.
